Earlier results in patent publication US11951146B2, “Stimulation of NK cell activity by using a combination of broccoli, Nigella Sativa, Green Tea, and pterostilbene alone and together with metformin” (Therapeutic Solutions International, Inc., priority 2020, dated 2024).
Where two headings read alike, the source gives them in different places.

Assays:
[1] = test system: primary peritoneal macrophages
[2] = test system: LPS-challenged macrophages; conditions: pre-incubated 6 h, then LPS 24 h
LPS-induced ARDS [3] = test system: LPS-induced ARDS
[4] = test system: lipopolysaccharide-induced inflammatory reactions
sepsis = conditions: for concentration of IL-la: controls 1187.0±278.64
[5] = test system: lipopolysaccharide-activated macrophages
[6] = test system: myocardial ischemia and reperfusion; conditions: EGCG 10 mg/kg intravenously then 10 mg/kg/h infusion
experimental colitis = conditions: 50 and 100 mg/kg/day EGCG
polymicrobial sepsis [7] = conditions: 10 mg/kg intraperitoneally at 1 and 6 h after CL2P and every 12 h
polymicrobial sepsis [8] = conditions: 10 mg/kg intraperitoneally, 72 h after CL2P
[9] = test system: lethal endotoxemia / lethal sepsis
LPS-induced ARDS [10] = conditions: EGCG 10 mg/kg ip
[11] = test system: interleukin-1, interleukin-6, interleukin-8, TNF-alpha
[12] = rat, in vivo

C[S+]([O-])CCCCN=C=S (stereo not shown) [sulforaphane, 1-isothiocyanato-4-(methylsulfinyl)-butane]
HO-1 expression ([1]; LPS-stimulated Nrf2 (+/+) primary peritoneal macrophages): significantly augmented | LPS-stimulated mRNA expression, protein expression and production of TNF-alpha, IL-1beta, COX-2 and iNOS ([1]; Nrf2 (+/+) primary peritoneal macrophages, pretreatment): potently inhibited | anti-inflammatory effect ([1]; Nrf2 (−/−) primary peritoneal macrophages): attenuated | expression of NO and cytokines [2]: prevent the expression | Nrf2/antioxidant response element (ARE) pathway (LPS-induced ARDS [3]; pre-treatment): activated | LDH activity, wet-to-dry ratio of the lungs, serum IL-6 and TNF-α, nuclear factor-κB protein expression (LPS-induced ARDS [3]; sulforaphane 50 mg/kg, LPS 5 mg/kg 3 days later): significantly decreased | PGE2 production, COX-2 and MMP-9 protein expression, iNOS activity (LPS-induced ARDS [3]; sulforaphane 50 mg/kg, LPS-induced ALI): significantly inhibited

CC1=CC(=O)C(C(C)C)=CC1=O [thymoquinone]
lipopolysaccharide-induced inflammatory reactions [4]: suppressed effectively | concentration of nitric oxide ([4]; lipopolysaccharide-induced): reduced significantly | concentration of IL-la (sepsis; 0.75 mg/kg thymoquinone dose): 310.8 ± 70.93 pg/mL | IL-1β levels (sepsis; 0.75 mg/kg thymoquinone, controls 5505.2±333.96): 2885.0 ± 553.98 pg/mL | concentration of IL-la (sepsis; 1 mg/kg group): 428.3 ± 71.32 pg/mL | levels of TNF-α and IL-2 (sepsis; P values=0.1817 and 0.0851): relatively lower levels | reduction of mortality (sepsis; mice, sepsis): 80-90% | renal and hepatic biomarker profiles (sepsis; mice, sepsis): improved

epigallocatechin-3-gallate [EGCG]
NO production ([5]; cells cotreated with EGCG and LPS): Inhibition | activation of nuclear factor-kappaB ([5]; electrophoretic mobility shift assay): blocked the activation | TNF-α-induced nuclear factor-κB (NF-κB) activity (macrophage foam cells): inhibition | TNF-α-induced downregulation of ABCA1 and decrease in cholesterol efflux to apoA1 (macrophage foam cells; pretreatment with EGCG): attenuated | myocardial damage and myeloperoxidase activity [6]: reduced | plasma IL-6 and creatine phosphokinase levels [6]: decreased | HIF-la and STAT3 protein expression in the colon (experimental colitis): decreasing | plasma levels of IL-1β and TGF-β1 (experimental colitis): increasing | release of IL-6 and IL-17 (experimental colitis): reduce the release | hypotension (mean arterial blood pressure) (polymicrobial sepsis [7]): significantly improved | survival (polymicrobial sepsis [8]): significantly improved | rescue from lethal sepsis ([9]; first dose 24 hours after cecal ligation and puncture): rescued | protection against lethal endotoxemia ([9]; intraperitoneal): protected | expression of IκB-α (LPS-induced ARDS [10]): increased the expression | expression of TLR-4, MyD88, TRIF and p-p65 in the lung tissue (LPS-induced ARDS [10]): alleviated the expression | expression of TNF-α, IL-1β and IL-6 in lung, serum and bronchoalveolar lavage fluid (LPS-induced ARDS [10]): significantly decreased | expression of p65 (LPS-induced ARDS [10]): had no influence

trans-3,5-dimethoxy-4-hydroxystilbene [pterostilbene]
inhibition of interleukin-1, interleukin-6, interleukin-8 and TNF-alpha [11]: inhibition | bioavailability [12]: 80%
